Laboratory results from patent US20210022340A1, “USE OF PYRIDINE UREA COMPOUND HAVING SNAIL-KILLING ACTIVITY” (priority 2017, published 2021).
Values after ≈ are worked out from the molar mass of the structure shown.

Assays:
Oncomelania hupensis = test: Snail-killing activity against Oncomelania hupensis (immersion method); format: in vivo; conditions: 24 h, 24 hours of immersion, 25° C., linear interpolation, read-out: Oncomelania hupensis the LC50 values at the 24th hour
Procedure: (1): Snail-Killing Activity Against Oncomelania hupensis
Oncomelania hupensis was used as a tested sample and tested by the immersion method. Operation process: Weigh various samples accurately (compounds of any of Example 1 to Example 16), dissolve each sample with 0.2 mL of N,N-dimethylformamide, and dilute each sample to 0.2 mg/L of the drug solution with dechlorinated tap water. Put 30 snails in each beaker and pour 100 ml of the above-mentioned drug solution into each beaker. And cover the plastic gauze on the beaker to prevent the snails from climbing to the liquid surface. Place the above beakers accommodating the drug solution and snails in the incubator under the conditions which is at 25° C. constant temperature, and the humidity is maintained at 60%. and the light is fully. After 24 hours of immersion in the incubator, the drug solution is poured, and each sample is washed for 3 times by using water. Then, 15 mL of dechlorinated tap water is added to resuscitate each sample for 1 hour. Each sample is resuscitated for 1 hour again after 24 hours, and then activity of the snails is determined by knocking after 24 hours. Each sample was set to repeat 3 times. The tested concentrations were respectively 0.1 mg/L, 0.5 mg/L, 1 mg/L, 2 mg/L, 5 mg/L, and 10 mg/L. A linear interpolation method was used to draw a curve of the percentage of death at the 24th hour relative to the tested concentrations of the prepared compounds, thereby the LC50 values at the 24th hour are obtained.
A comparison was made with 0.2 mg/L of niclosamide (positive control) and water containing 0.2 mL/L of N,N-dimethylformamide (blank control).

Acute toxicity to fish = format: in vivo, Danio rerio; conditions: Danio rerio, in vivo, pH 7, 96 hour test cycle, 23±1° C., linear interpolation; read-out: Danio rerio the LC50 values at the 96th hour
Procedure: (§1) (2): Study on Acute Toxicity to Fish
(§2) Tested substance: Compound of any of Example 1 to Example 16 of which tested concentrations were respectively 0 mg/L, 20 mg/L, 40 mg/L, 60 mg/L, 80 mg/L, and 100 mg/L.
(§3) Tested fish species: Danio rerio of which body length was 20±1 mm and weight was 0.3±0.1 g.
(§4) Test process: The tested fish was domesticated in continuous aerated diluted water for 7 days before the test. The water quality and lighting conditions during the domestication were consistent with the conditions during the test. Feeding was stopped 24 hours before the test. […] The water temperature during the test was constant at 23±1° C. The dissolved oxygen content during the test should be higher than 60% of the air saturation value, and the pH value was 7.0±0.2. The test cycle is 96 hours. The poisoning symptoms and mortality of the tested fish were observed and recorded at any time within 3 hours to 6 hours after starting the test, and then the poisoning symptoms and mortality of the tested fish at different concentrations were observed and recorded at 24th hour, 48th hour, 72th hour, and 96th hour. The criterion for judging dead fish is to knock the tail of the fish with glasses. If the fish had no action, it is judged that the fish was dead.
(§5) A linear interpolation method was used to draw the curve of the percentage of death relative to the tested concentrations of the compound prepared in Example 4 at 96 hour, thereby the LC50 values at 96th hour are obtained, which was treated with water as a blank control. The LC50 value of the other compound at 96th hour was obtained in this way.

Danio rerio [1] = test: Acute toxicity to fish; format: in vivo; conditions: applied for 1 hour
Danio rerio [2] = test: Acute toxicity to fish; format: in vivo; conditions: 96 hour test cycle, 23±1° C., linear interpolation
Procedure: as §1, §2, §3, §4, §5

Row | SMILES | LC50 (Oncomelania hupensis) [µg/mL] | LC50 at 96 h (Acute toxicity to fish) [µg/mL] | fish death (Danio rerio [1]) | Danio rerio the LC50 values at the 96th hour (Danio rerio [2]) [µg/mL]
1 | Cc1cccc(NC(=O)Nc2cccnc2)c1 [Compound 12] | 8.2 (≈ 36.1 µM) | > 100 |  | 
2 | O=C(Nc1cccnc1)Nc1cccc(F)c1 [Compound 11] | 4.9 (≈ 21.2 µM) | > 100 |  | 
3 | O=C(Nc1cccnc1)Nc1ccc(F)cc1C(F)(F)F [Compound 5] | 8.9 (≈ 29.7 µM) | > 100 |  | 
4 | Cc1ccc(NC(=O)Nc2cccnc2)cc1 [Compound 16] | 8.1 (≈ 35.6 µM) | > 100 |  | 
5 | O=C(Nc1cccnc1)Nc1ccc(Cl)cc1Cl [Compound 8] | 5.8 (≈ 20.6 µM) | > 100 |  | 
6 | O=C(Nc1cccnc1)Nc1ccccc1Cl [Compound 6] | 9.2 (≈ 37.1 µM) | > 100 |  | 
7 | O=C(Nc1ccc([N+](=O)[O-])cc1Cl)c1cc(Cl)ccc1O [niclosamide, reference compound] | 0.6 (≈ 1.83 µM) | 0.21 (≈ 0.642 µM) | all fish is resulted in almost death | 0.2
8 | O=C(Nc1ccc(Br)cc1)Nc1cccnc1 [Compound 13] | ~0.5 (≈ 1.71 µM) | 15 (≈ 51.3 µM) |  | 
9 | Cc1ccccc1NC(=O)Nc1cccnc1 [Compound 15] | 7.2 (≈ 31.7 µM) | > 100 |  | 
10 | O=C(Nc1ccc(Cl)cc1)Nc1cccnc1 [Compound 14] | ~0.5 (≈ 2.02 µM) | 15 (≈ 60.6 µM) |  | 
11 | O=C(Nc1ccc([N+](=O)[O-])cc1)Nc1cccnc1 [Compound 10] | 3.8 (≈ 14.7 µM) | > 100 |  | 
12 | O=C(Nc1cccnc1)Nc1ccc(F)cc1F [Compound 1] | 5 (≈ 20.1 µM) | > 100 |  | 
13 | O=C(Nc1cccnc1)Nc1cc(F)cc(F)c1 [Compound 9] | 4.3 (≈ 17.3 µM) | > 100 |  | 
14 | O=C(Nc1cccnc1)Nc1ccccc1F [Compound 3] | 4.8 (≈ 20.8 µM) | > 100 |  | 
15 | O=C(Nc1cccnc1)Nc1cccc(Cl)c1 [Compound 4] | 5.8 (≈ 23.4 µM) | > 100 |  | 
16 | O=C(Nc1ccc(OC(F)(F)F)cc1)Nc1cccnc1 [Compound 2] | 3.5 (≈ 11.8 µM) | > 100 |  | 
17 | O=C(Nc1cccnc1)Nc1ccc(Cl)cc1C(F)(F)F [Compound 7] | 6.7 (≈ 21.2 µM) | > 100 |  | 
